Results on 13 molecules are retold here after PubChem BioAssay (NCI).

Test systems include SF-268 CNS; RXF 393 renal; SK-MEL-2 melanoma; OVCAR-5 ovarian; SNB-78 CNS; HCT-15 colon; DMS 273 small cell lung; BT-549 breast; HS 578T breast; MDA-MB-435.
What all share (assay): inhibition of tumour cell growth, NCI panel, 48 h

Each structure is given as a SMILES string. Values joined by “and” are separate entries in the source; they are usually repeats but may differ in a detail not shown here. Equal entries are not always repeated.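 Cells were grown in 96-well plates and exposed to each compound for 48 hours at five concentrations; endpoints were interpolated linearly between bracketing concentrations, or set to the highest concentration if not reached. The concentration for 50% growth inhibition is given as GI50. TGI is the concentration that stops growth completely.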

On to `Nc1nc(SCCC/C=C/I)nc2c1ncn2C1OC(COP(=O)(O)O)C(O)C1O` (centres undefined), for which the TGI in the assay with SF-268 CNS, with RXF 393 renal, in the assay with SK-MEL-2 melanoma, with OVCAR-5 ovarian, in the assay on SNB-78 CNS and in the assay on HCT-15 colon was more than 100 µM in each case. Also, the TGI in the assay with DMS 273 small cell lung was more than 100 µM.
Turning to `O=C1C=C[C@@H](COC2OC(CO)C(O)C(O)C2O)O1` (some centres undefined), the GI50 in the assay on SF-268 CNS is 4.59 µM; in the assay on RXF 393 renal, 2.72 µM; in the assay with SK-MEL-2 melanoma, 15.3 µM; in the assay on OVCAR-5 ovarian, 28.5 µM; in the assay with HCT-15 colon, 3.22 µM; in the assay on DMS 273 small cell lung, 2.44 µM. Besides, the TGI with SF-268 CNS is 17.8 µM and 62.6 µM; with RXF 393 renal, 8.82 µM; in the assay on SK-MEL-2 melanoma it was 36.3 µM and 32.8 µM; in the assay on OVCAR-5 ovarian it was 50.4 µM and 36.8 µM; with HCT-15 colon, 21.5 µM and 16.4 µM; with DMS 273 small cell lung it was 13.9 µM and 39.6 µM.
As to `N#C/C(=C1/Sc2c(nc[nH]c2=O)N1c1ccccc1)c1nc2ccccc2[nH]1`, the TGI with SF-268 CNS, in the assay on SK-MEL-2 melanoma, in the assay with OVCAR-5 ovarian, in the assay with SNB-78 CNS, in the assay with HCT-15 colon and with DMS 273 small cell lung was more than 100 µM throughout.
Take `Cc1ccc(NC(=O)CC2Sc3ccccc3NC2=O)cc1C` (centres undefined): the TGI with SF-268 CNS, in the assay on RXF 393 renal, in the assay on SK-MEL-2 melanoma, in the assay with OVCAR-5 ovarian, in the assay with SNB-78 CNS and in the assay with HCT-15 colon was more than 100 µM each time. Moreover, the TGI in the assay with DMS 273 small cell lung was more than 100 µM.
In the case of `Nc1c(S(=O)(=O)O)cc2cc(S(=O)(=O)O)ccc2c1N=Nc1ccc(-c2ccc(N=Nc3c(N)c(S(=O)(=O)O)cc4cc(S(=O)(=O)O)ccc34)c(S(=O)(=O)O)c2)cc1`, the TGI in the assay on SF-268 CNS, in the assay with RXF 393 renal, in the assay on SK-MEL-2 melanoma, in the assay with OVCAR-5 ovarian, in the assay with SNB-78 CNS and with HCT-15 colon was more than 100 µM throughout. In the assay with DMS 273 small cell lung, the TGI is more than 100 µM.
As to `COc1ccc(/C=c2\sc3n(c2=O)CCN=3)cc1`, the TGI in the assay on RXF 393 renal, with SK-MEL-2 melanoma, in the assay on OVCAR-5 ovarian, in the assay with SNB-78 CNS and in the assay on HCT-15 colon was more than 100 µM throughout.
As to `c1ccc2c(c1)Cn1c-2nc2ccccc21`, the TGI with SF-268 CNS, in the assay on RXF 393 renal, with SK-MEL-2 melanoma, in the assay on OVCAR-5 ovarian, with BT-549 breast and in the assay with HCT-15 colon was more than 100 µM in each case. For the same molecule, the TGI with HS 578T breast and in the assay on MDA-MB-435 was more than 100 µM each time.
With `Nn1c(Nc2ccc(S(=O)(=O)Nc3ncccn3)cc2)nnc(/C=C/c2c(O)ccc3ccccc23)c1=O`, the TGI with SF-268 CNS is more than 100 µM; in the assay on RXF 393 renal it was 80.3 µM; with SK-MEL-2 melanoma it was 51.1 µM; in the assay on OVCAR-5 ovarian, 91.9 µM; in the assay on BT-549 breast, 60 µM; in the assay on HCT-15 colon, more than 100 µM. In addition, the TGI was more than 100 µM in the assay with HS 578T breast and 69.4 µM in the assay with MDA-MB-435.
As to `CCOC(=O)c1c(CN2CCCC2)n(-c2ccccc2)c2cc(Br)c(O)cc12`, the TGI with SF-268 CNS was 49.7 µM; in the assay on RXF 393 renal it was 25.6 µM; with SK-MEL-2 melanoma, 33.3 µM; in the assay on OVCAR-5 ovarian, 36.5 µM; in the assay on BT-549 breast it was 55.8 µM; in the assay with HCT-15 colon it was 40.5 µM. Besides, the TGI in the assay with HS 578T breast stood at 74.9 µM; in the assay with MDA-MB-435, 33.2 µM.
In the case of `Cc1oc2c(cc(O)c3cc(O)ccc32)c2cccc1-2`, the TGI was more than 100 µM with SF-268 CNS; more than 100 µM in the assay with RXF 393 renal; more than 100 µM in the assay with SK-MEL-2 melanoma; more than 100 µM in the assay with OVCAR-5 ovarian; 44 µM with BT-549 breast; more than 100 µM in the assay on HCT-15 colon. In addition, the TGI with HS 578T breast and in the assay with MDA-MB-435 was more than 100 µM throughout.
With `CCC(=O)NC(Nc1cc(C)on1)(C(F)(F)F)C(F)(F)F`, the TGI with SF-268 CNS, in the assay with RXF 393 renal, in the assay with SK-MEL-2 melanoma, in the assay on OVCAR-5 ovarian, in the assay with BT-549 breast and in the assay on HCT-15 colon was more than 100 µM each time. Moreover, the TGI in the assay on HS 578T breast and with MDA-MB-435 was more than 100 µM in each case.
With `COC(=O)[C@@H](O)[C@](O)(CCC(C)C)C(=O)O[C@@H]1C(OC)=C[C@]23CCCN2CCc2cc4c(cc2[C@H]13)OCO4`, the TGI in the assay on SF-268 CNS came out at 3.37 µM; with RXF 393 renal it was 5.41 µM; in the assay with SK-MEL-2 melanoma it was 9.15 µM; with OVCAR-5 ovarian it was 15.2 µM; with SNB-78 CNS, 10.9 µM; with HCT-15 colon, 7.33 µM. In the assay on DMS 273 small cell lung, this molecule had a TGI of 3.47 µM.
For `COc1ccc(C(=C2C=CC=C2)c2ccc(OC)cc2)cc1`, the TGI is more than 100 µM with SF-268 CNS; 61.7 µM with RXF 393 renal; 68.5 µM with SK-MEL-2 melanoma; 88.5 µM with OVCAR-5 ovarian; more than 100 µM in the assay with BT-549 breast; 74 µM in the assay with HCT-15 colon. The TGI in the assay on HS 578T breast was 94.4 µM; in the assay with MDA-MB-435, more than 100 µM.
